In US10781197B2, “Sulfonamide analogues of galiellalactone” (GLACTONE PHARMA DEVELOPMENT AB, priority 2016, dated 2020):

Tested on: STAT3 signaling
Assay: STAT3 Luciferase reporter gene assay
Format: cell-based
Conditions: not given
Method: The ability to inhibit STAT3 signaling of the example compounds in comparison to galiellalactone was evaluated using a STAT3 Luciferase reporter gene assay.
Compounds were tested for dose response activity to determine IC50 at eight different doses (0.03, 0.1, 0.3, 1, 3, 10, 30 and 100 μM) in triplicate on the STAT3 reporter system.
Briefly, the STAT3 reporter/HEK293 cell line was plated in 96-well white plates for 16 h. Cells were pretreated with compounds for 1 h. Cells were then treated with IL-6 to induce STAT3 activation for 16 h. Luciferase activity was measured and analyzed.

SMILES | activity in the STAT3 reporter assay (in words)
Cc1ccc(S(=O)(=O)N(C)[C@@]2(C)C=C3C(=O)O[C@@H]4CC[C@H](C2)[C@]34O)cc1 [Example 23, N-[(4R,7R,9R,11 S)-11-Hydroxy-9-methyl-2-oxo-3-oxatricyclo[5.3.1.0^4,11]undec-1(10)-en-9-yl]-N,4-dimethylbenzene-1-sulfonamide] | significantly reduced or total loss of activity
CC(C)S(=O)(=O)N[C@@]1(C)C=C2C(=O)O[C@@H]3CC[C@H](C1)[C@]23O [Example 24, N-[(4R,7R,9R,11 S)-11-Hydroxy-9-methyl-2-oxo-3-oxatricyclo[5.3.1.0^4,11]undec-1(10)-en-9-yl]propane-2-sulfonamide] | significantly reduced or total loss of activity

Same assay, conditions: Homo sapiens; STAT3 reporter/HEK293 cell line, 1 h pretreatment, IL-6 induced for 16 h, luciferase activity; read-out: IC50

IC50 [µM] | SMILES
8.41 | COc1ccc(S(=O)(=O)N[C@@]2(C)C=C3C(=O)O[C@@H]4CCC(C2)[C@]34O)cc1 (stereo partly drawn) [Example 3, N-[(4R,7R,9R,11S)-11-Hydroxy-9-methyl-2-oxo-3-oxatricyclo[5.3.1.0^4,^11]undec-1(10)-en-9-yl]-4-methoxybenzene-1-sulfonamide]
6.71 | C[C@]1(NS(=O)(=O)c2ccccc2[N+](=O)[O-])C=C2C(=O)O[C@@H]3CCC(C1)[C@]23O (stereo partly drawn) [Example 4, N-[(4R,7R,9R,11S)-11-Hydroxy-9-methyl-2-oxo-3-oxatricyclo[5.3.1.0^4,^11]undec-1(10)-en-9-yl]-2-nitrobenzene-1-sulfonamide]
1.76 | C[C@]1(NS(=O)(=O)c2ccc(C(F)(F)F)cc2)C=C2C(=O)O[C@@H]3CCC(C1)[C@]23O (stereo partly drawn) [Example 5, N-[(4R,7R,9R,11S)-11-Hydroxy-9-methyl-2-oxo-3-oxatricyclo[5.3.1.0^4,^11]undec-1(10)-en-9-yl]-4-(trifluoromethyl)benzene-1-sulfonamide]
4.69 | C[C@]1(NS(=O)(=O)c2ccccc2F)C=C2C(=O)O[C@@H]3CCC(C1)[C@]23O (stereo partly drawn) [Example 7, 2-Fluoro-N-[(4R,7R,9R,11S)-11-hydroxy-9-methyl-2-oxo-3-oxatricyclo[5.3.1.0^4,^11]undec-1(10)-en-9-yl]benzene-1-sulfonamide]
2.9 | C[C@]1(NS(=O)(=O)c2ccc(C(F)(F)F)cc2Cl)C=C2C(=O)O[C@@H]3CCC(C1)[C@]23O (stereo partly drawn) [Example 15, 2-Chloro-N-[(4R,7R,9R,11S)-11-hydroxy-9-methyl-2-oxo-3-oxatricyclo[5.3.1.0^4,^11]undec-1(10)-en-9-yl]-4-(trifluoromethyl)benzene-1-sulfonamide]
4.5 | Cc1ccc(S(=O)(=O)N[C@@]2(C)C=C3C(=O)O[C@@H]4CCC(C2)[C@]34O)cc1F (stereo partly drawn) [Example 16, 3-Fluoro-N-[(4R,7R,9R,11S)-11-hydroxy-9-methyl-2-oxo-3-oxatricyclo[5.3.1.0^4,^11]undec-1(10)-en-9-yl]-4-methylbenzene-1-sulfonamide]
3.16 | C[C@]1(NS(=O)(=O)c2ccc(F)cc2)C=C2C(=O)O[C@@H]3CCC(C1)[C@]23O (stereo partly drawn) [Example 17, 4-Fluoro-N-[(4R,7R,9R,11S)-11-hydroxy-9-methyl-2-oxo-3-oxatricyclo[5.3.1.0^4,^11]undec-1(10)-en-9-yl]benzene-1-sulfonamide]
3.63 | C[C@]1(NS(=O)(=O)c2ccc(N)cc2)C=C2C(=O)O[C@@H]3CC[C@H](C1)[C@]23O [Example 21, 4-Amino-N-[(4R,7R,9R,11 S)-11-hydroxy-9-methyl-2-oxo-3-oxatricyclo[5.3.1.0^4,11]undec-1(10)-en-9-yl]benzene-1-sulfonamide]
3.7 | COc1ccc(CN2C(=O)C3=C[C@](C)(NS(=O)(=O)c4ccc(C)cc4)CC4CC[C@@H]2[C@@]34O)cc1 (stereo partly drawn) [Example 25, N-[(4R,7R,9R,11S)-11-hydroxy-3-[(4-methoxyphenyl)methyl]-9-methyl-2-oxo-3-azatricyclo[5.3.1.04,^11]undec-1(10)-en-9-yl]-4-methylbenzene-1-sulfonamide]
8.64 | COc1ccc(CN2C(=O)C3=C[C@](C)(NS(=O)(=O)c4ccc(C(F)(F)F)cn4)CC4CC[C@@H]2[C@@]34O)cc1 (stereo partly drawn) [Example 26, N-[(4R,7R,9R,11S)-11-Hydroxy-3-[(4-methoxyphenyl)methyl]-9-methyl-2-oxo-3-azatricyclo[5.3.1.04,^11]undec-1(10)-en-9-yl]-5-(trifluoromethyl)pyridine-2 sulfonamide]

The remaining lines, values behind:

SMILES | IC50 [µM]
C[C@]1(NS(=O)(=O)c2ccccc2)C=C2C(=O)O[C@@H]3CCC(C1)[C@]23O (stereo partly drawn) [Example 2, N-[(4R,7R,9R,11S)-11-Hydroxy-9-methyl-2-oxo-3-oxatricyclo[5.3.1.0^4,^11]undec-1(10)-en-9-yl]benzenesulfonamide] | 3
Cc1cccc(S(=O)(=O)N[C@@]2(C)C=C3C(=O)O[C@@H]4CCC(C2)[C@]34O)c1 (stereo partly drawn) [Example 6, N-[(4R,7R,9R,11S)-11-Hydroxy-9-methyl-2-oxo-3-oxatricyclo[5.3.1.0^4,^11]undec-1(10)-en-9-yl]-3-methylbenzene-1-sulfonamide] | 6.76
C[C@]1(NS(=O)(=O)c2ccc([N+](=O)[O-])cc2)C=C2C(=O)O[C@@H]3CCC(C1)[C@]23O (stereo partly drawn) [Example 8, N-[(4R,7R,9R,11S)-11-Hydroxy-9-methyl-2-oxo-3-oxatricyclo[5.3.1.0^4,^11]undec-1(10)-en-9-yl]-4-nitrobenzene-1-sulfonamide] | 5.05
C[C@]1(NS(=O)(=O)c2ccc(C#N)cc2)C=C2C(=O)O[C@@H]3CCC(C1)[C@]23O (stereo partly drawn) [Example 9, 4-Cyano-N-[(4R,7R,9R,11S)-11-hydroxy-9-methyl-2-oxo-3-oxatricyclo[5.3.1.0^4,^11]undec-1(10)-en-9-yl]benzene-1-sulfonamide] | 9.31
C[C@]1(NS(=O)(=O)c2ccc(Br)cc2)C=C2C(=O)O[C@@H]3CCC(C1)[C@]23O (stereo partly drawn) [Example 10, 4-Bromo-N-[(4R,7R,9R,11S)-11-hydroxy-9-methyl-2-oxo-3-oxatricyclo[5.3.1.0^4,^11]undec-1(10)-en-9-yl]benzene-1-sulfonamide] | 3.2
C[C@]1(NS(=O)(=O)c2ccc(C3=NCCO3)cc2)C=C2C(=O)O[C@@H]3CCC(C1)[C@]23O (stereo partly drawn) [Example 11, 4-(4,5-Dihydro-1,3-oxazol-2-yl)-N-[(4R,7R,9R,11S)-11-hydroxy-9-methyl-2-oxo-3-oxatricyclo[5.3.1.0^4,^11]undec-1(10)-en-9-yl]benzene-1-sulfonamide] | 0.24
Cc1ccc(S(=O)(=O)N[C@@]2(C)C=C3C(=O)O[C@@H]4CCC(C2)[C@]34O)nc1 (stereo partly drawn) [Example 12, N-[(4R,7R,9R,11S)-11-Hydroxy-9-methyl-2-oxo-3-oxatricyclo[5.3.1.0^4,^11]undec-1(10)-en-9-yl]-5-methylpyridine-2-sulfonamide] | 3.38
Cc1ccc(S(=O)(=O)N[C@@]2(C)C=C3C(=O)O[C@@H]4CCC(C2)[C@]34O)cn1 (stereo partly drawn) [Example 13, N-[(4R,7R,9R,11S)-11-Hydroxy-9-methyl-2-oxo-3-oxatricyclo[5.3.1.0^4,^11]undec-1(10)-en-9-yl]-6-methylpyridine-3-sulfonamide] | 5.65
Cc1ccc(S(=O)(=O)N[C@@]2(C)C=C3C(=O)O[C@@H]4CCC(C2)[C@]34O)s1 (stereo partly drawn) [Example 14, N-[(4R,7R,9R,11S)-11-Hydroxy-9-methyl-2-oxo-3-oxatricyclo[5.3.1.0^4,^11]undec-1(10)-en-9-yl]-5-methylthiophene-2-sulfonamide] | 6.78
C[C@]1(NS(=O)(=O)c2ccc(Cl)cc2)C=C2C(=O)O[C@@H]3CCC(C1)[C@]23O (stereo partly drawn) [Example 18, 4-Chloro-N-[(4R,7R,9R,11S)-11-hydroxy-9-methyl-2-oxo-3-oxatricyclo[5.3.1.0^4,^11]undec-1(10)-en-9-yl]benzene-1-sulfonamide] | 2.26
Cc1ccc(CS(=O)(=O)N[C@@]2(C)C=C3C(=O)O[C@@H]4CCC(C2)[C@]34O)cc1 (stereo partly drawn) [Example 19, N-[(4R,7R,9R,11S)-11-Hydroxy-9-methyl-2-oxo-3-oxatricyclo[5.3.1.0^4,^11]undec-1(10)-en-9-yl]-1-(4-methylphenyl)methanesulfonamide] | 9.69
C[C@]1(NS(=O)(=O)c2ccc(CO)cc2)C=C2C(=O)O[C@@H]3CC[C@H](C1)[C@]23O [Example 22, N-[(4R,7R,9R,11S)-11-Hydroxy-9-methyl-2-oxo-3-oxatricyclo[5.3.1.0^4,11]undec-1(10)-en-9-yl]-4-(hydroxymethyl)benzene-1-sulfonamide] | 11.4
CC(C)S(=O)(=O)N[C@@]1(C)C=C2C(=O)O[C@@H]3CC[C@H](C1)[C@]23O [Example 24, N-[(4R,7R,9R,11 S)-11-Hydroxy-9-methyl-2-oxo-3-oxatricyclo[5.3.1.0^4,11]undec-1(10)-en-9-yl]propane-2-sulfonamide] | 97
C[C@]1(NS(=O)(=O)c2ccc(C(F)(F)F)cn2)C=C2C(=O)N(Cc3ccc(C#N)cc3)[C@@H]3CC[C@H](C1)[C@]23O [Example 27, N-[(4R,7R,9R,11S)-3-[(4-Cyanophenyl)methyl]-11-hydroxy-9-methyl-2-oxo-3-azatricyclo[5.3.1.0^4,11]undec-1 (10)-en-9-yl]-5-(trifluoromethyl)pyridine-2-sulfonamide] | 8.61

Same assay, conditions: STAT3 reporter/HEK293 cell line, 1 h pretreatment, IL-6 induced for 16 h, luciferase activity

IC50 | SMILES
inactive | Cc1ccc(S(=O)(=O)N(C)[C@@]2(C)C=C3C(=O)O[C@@H]4CC[C@H](C2)[C@]34O)cc1 [Example 23, N-[(4R,7R,9R,11 S)-11-Hydroxy-9-methyl-2-oxo-3-oxatricyclo[5.3.1.0^4,11]undec-1(10)-en-9-yl]-N,4-dimethylbenzene-1-sulfonamide]

Same assay, conditions: listed as example 23

activity in the STAT3 reporter assay (in words) | SMILES
no or low activity | Cc1ccc(S(=O)(=O)N(C)[C@@]2(C)C=C3C(=O)O[C@@H]4CC[C@H](C2)[C@]34O)cc1 [Example 23, N-[(4R,7R,9R,11 S)-11-Hydroxy-9-methyl-2-oxo-3-oxatricyclo[5.3.1.0^4,11]undec-1(10)-en-9-yl]-N,4-dimethylbenzene-1-sulfonamide]

Same assay, conditions: listed as example 24

activity in the STAT3 reporter assay (in words) | SMILES
no or low activity | CC(C)S(=O)(=O)N[C@@]1(C)C=C2C(=O)O[C@@H]3CC[C@H](C1)[C@]23O [Example 24, N-[(4R,7R,9R,11 S)-11-Hydroxy-9-methyl-2-oxo-3-oxatricyclo[5.3.1.0^4,11]undec-1(10)-en-9-yl]propane-2-sulfonamide]
